Assays:
Assay type in all cases: binding, human
[1] = tested on: serum 1a (individual 1, early serum)
[2] = tested on: serum 1b (individual 1, late serum)
[3] = tested on: serum 2 (individual 2)
[4] = tested on: serum 6 (individual 6)
[5] = tested on: serum 37 (individual 37)
[6] = tested on: serum 62 (individual 62)
[7] = tested on: serum London
[8] = tested on: serum SARS-yellow
[9] = tested on: serum SARS-green
[10] = tested on: control serum LUMC (pooled serum of ten healthy hospital workers)
[11] = tested on: control serum Blood-bank (commercial negative donor pooled serum)
[12] = tested on: sera SARS-green, SARS-yellow, 1a, 1b, 2, 6, 37, 62 and London

Row | Sequence | Binding of serum 1a to linear peptides of Orf14 of SARS-CoV TOR2 [1] | Binding of serum 1b to linear peptides of Orf14 of SARS-CoV TOR2 [2] | Binding of serum 2 to linear peptides of Orf14 of SARS-CoV TOR2 [3] | Binding of serum 6 to linear peptides of Orf14 of SARS-CoV TOR2 [4] | Binding of serum 37 to linear peptides of Orf14 of SARS-CoV TOR2 [5] | Binding of serum 62 to linear peptides of Orf14 of SARS-CoV TOR2 [6] | Binding of serum London to linear peptides of Orf14 of SARS-CoV TOR2 [7] | Binding of serum SARS-yellow to linear peptides of Orf14 of SARS-CoV TOR2 [8] | Binding of serum SARS-green to linear peptides of Orf14 of SARS-CoV TOR2 [9] | Control serum LUMC linear peptides [10] | Control serum LUMC looped peptides [10] | Control Serum Blood-Bank Looped peptides [11] | Control serum Blood-bank linear peptides [11] | Recognition of the peptide by sera of individuals infected by SARS-CoV, form recognized [12]
1 | FLKEQHCQKASTQRE | 0.3 | 0.3 | 0.3 | 0.2 | 0.4 | 0.3 | 0.3 | 0.2 | 0.1 | 0.3 | 1.1 | 0.9 | 0.4 | recognized in looped form
2 | PCYNFLKEQHCQKAS | 0.3 | 0.2 | 0.1 | 0.3 | 0.4 | 0.1 | 0.2 | 0.1 | 0.1 | 0.1 | 0.5 | 0.7 | 0.0 | recognized in looped form
3 | QKASTQREAEAAVKP | 0.4 | 0.3 | 0.4 | 0.3 | 0.4 | 0.3 | 0.3 | 0.1 | 0.1 | 0.3 | 0.8 | 0.7 | 0.3 | recognized in looped form
4 | HCQKASTQREAEAAV | 0.6 | 0.5 | 0.9 | 0.6 | 0.7 | 0.7 | 0.7 | 0.6 | 0.4 | 0.6 | 0.8 | 0.9 | 0.5 | recognized in looped form
5 | LKEQHCQKASTQREA | 0.3 | 0.2 | 0.4 | 0.2 | 0.4 | 0.2 | 0.3 | 0.3 | 0.1 | 0.3 | 0.9 | 0.9 | 0.3 | recognized in looped form
6 | LPPCYNFLKEQHCQK | 0.3 | 0.2 | 0.2 | 0.2 | 0.3 | 0.2 | 0.1 | 0.0 | 0.0 | 0.2 | 0.6 | 0.9 | 0.2 | recognized in looped form
7 | EQHCQKASTQREAEA | 0.4 | 0.4 | 0.6 | 0.4 | 0.5 | 0.3 | 0.5 | 0.4 | 0.3 | 0.4 | 0.8 | 0.9 | 0.5 | recognized in looped form

— patent US20060154243A1 (priority 2003, published 2006)
